From patent US20230146675A1, “PYRIMIDO[5,4-d]PYRIMIDINE DERIVATIVES AS ENT INHIBITORS FOR THE TREATMENT OF CANCERS, AND COMBINATION THEREOF WITH ADENOSINE RECEPTOR ANTAGONISTS” (ITEOS BELGIUM SA, priority 2020, published 2023)
Where two headings read alike, the source gives them in different places.

Assays:
[1] = system: stimulated primary human T cells; assay: T cell proliferation assay (rescue of proliferation in presence of 100 uM ATP); type: cell-based
Protocol: Purpose. The aim of this study was to determine the potency of equilibrative nucleoside transporter 1 (ENT1) inhibitors to rescue proliferation by stimulated primary human T cells incubated in the presence of 100 uM Adenosine triphosphate (ATP) with: • Condition A: X-VIVO15 • Condition B: X-VIVO15, 2% Human Serum Albumine (HSA) and 0.1% α-1-Acid Glycoprotein (AAG)
Method. Cryopreserved purified human CD3+ T cells were thawed and washed twice with RPMI1640 medium, UltraGlutamine containing 10% hiFBS.
Cells were suspended in PBS containing 10% hiFBS. Cells were stained with CFSE by adding 2 μM solution in PBS, to get a final 1 μM CFSE solution. Cells were incubated while rotating for 5 minutes. Reaction was stopped by adding PBS with 10% FBS and cells were centrifuged for 5 minutes at 1500 rpm.
Cells were resuspended at 1.6×10^6 cells/mL, either in X-VIVO15 medium or in 4% Human Serum Albumin and 0.2% α-1-Acid Glycoprotein. 50 μL of cell suspension (8×10^4 T cells) was added to wells of sterile round-bottom 96-well plates. Cells were activated by adding 50 μL of anti-CD3 anti-CD28 coated microbeads, suspended either in XVIVO-15 medium or in 4% HSA and 0.2% α-1-Acid Glycoprotein, at a ratio of one microbead per two cells.
Serial dilutions of the ENT1 inhibitors were prepared in X-VIVO15 from 10 mM stock solutions in DMSO, and 50 μL was added to the wells.
ATP powder was diluted in X-VIVO15, and 50 μL of this compound was added to the wells to reach a final assay concentration of 100 μM. Final volume of 200 μL.
The experiments were also performed in 384 well plates—all volumes reduced by a factor of 4 ([…]) with a final volume of 50 μL.
Experiments were performed in duplicate. The cells were placed in a 37° C. humidified tissue culture incubator with 5% CO2 for 72 hours for 96 well plates, 96 hours for 384 well plates. After 72 or 96 hours, proliferation was measured determined by CFSE dilution via flow cytometry.
Results. Compounds of the invention have good ENT1 inhibitory properties.

human ENT1 [2] = biological target: T1, human ENT1 (Homo sapiens, UniProt Q99808); assay: Uridine transport inhibition assay (3H-uridine uptake, MDCKII-ENT1-LV cells); type: cell-based; conditions: 3H-uridine (1 μM), 1 min at 25° C.
T1 sequence (Q99808 1-456): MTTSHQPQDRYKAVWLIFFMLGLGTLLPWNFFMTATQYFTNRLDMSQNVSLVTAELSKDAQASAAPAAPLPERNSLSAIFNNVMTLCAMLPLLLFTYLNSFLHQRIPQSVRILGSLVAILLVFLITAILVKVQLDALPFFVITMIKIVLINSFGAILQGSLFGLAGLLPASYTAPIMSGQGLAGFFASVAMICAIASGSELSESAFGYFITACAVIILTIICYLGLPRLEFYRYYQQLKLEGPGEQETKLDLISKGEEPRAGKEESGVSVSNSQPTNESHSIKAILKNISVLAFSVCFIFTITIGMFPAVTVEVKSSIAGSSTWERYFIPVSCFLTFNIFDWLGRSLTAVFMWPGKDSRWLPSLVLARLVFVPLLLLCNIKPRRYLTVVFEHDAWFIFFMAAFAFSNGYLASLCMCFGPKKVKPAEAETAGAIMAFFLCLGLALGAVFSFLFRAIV
Source text: Purpose. The aim of this study was to determine the potency of equilibrative nucleoside transporter 1 (ENT1) inhibitors by measuring ENT1-mediated transport is the cellular uptake assay. The human ENT1 transporter can be stably expressed in Madin-Darby Canine Kidney II (MDCKII) cells via transduction. Uridine is efficiently transported by ENT1 and is used as probe in the assay as 3H-uridine. The interaction is detected as the modulation of the initial rate of 3H-uridine transport by human ENT1 into MDCKII-ENT1-LV cells stably expressing ENT1 uptake transporter.

human AAG protein = assay: AAG binding assay - dialysis assay; conditions: 2 μM, 37° C., 4-hr
Protocol: Purpose. The aim of this assay is to determine the binding of a compound of interest to the human AAG protein using the robust method of dialysis.
Material. […] The dialysis Buffer (100 mM Phosphate Buffered Saline, pH 7.4) has been prepared by dissolving 28.56 g Na2HPO4.12H2O (AR grade) and 3.12 g NaH2PO4.2H2O (AR grade) into a final volume of 1000 mL ultra pure water, mixed, and adjusted the resulting solution with 1% phosphoric acid or 1 M sodium hydroxide to pH 7.4±0.1. Stored the final solution in 2-8° C. refrigerator within an expiration of a month after preparation.
Method: The dialysis membrane is soaked in dialysis buffer at 4° C. overnight. The following day the membrane is separated into two strips and then soaked in ethanol: water (20:80 v:v) for 20 mins. Then the membrane was rinsed with ultra-pure water 3-4 times. Prepared 400 μM working solution by diluting the stock solution (10 mM) with appropriate volume of DMSO. 5 μL aliquots of each working solution were spiked into 1000 μL of blank protein (matrix) to achieve a 2 μM final concentration as loading solution. The plates of loading solution were mixed well. Aliquots of 150 μL of loading solution were loaded in triplicate to the donor side of each dialysis well and dialyzed against an equal volume of dialysis buffer. […]
The concentration was calculated using the peak area ratio of analyte and internal standard.

human ENT1 [3] = biological target: T1, human ENT1; assay: ENT1 binding assay (competition with Sahenta-DY647 on JAR cells); parameters: JAR cells expressing ENT1 were bought from ATCC; host or cells: JAR cells; conditions: binned IC50
Summary of the method: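 JAR cells were incubated with test compounds and the fluorescent ligand Sahenta-DY647 in competition. Plates were washed twice by centrifugation (4 min, 400 rcf, 4 °C). Binding potency was derived from the final fluorescence.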

[4] = system: human alpha 1-acid glycoprotein (AAG); assay: AAG binding assay - HPLC assay; conditions: human, 100 μmol/L
Protocol: Purpose. […] The principle of the assay is a liquid chromatography on a human AAG protein immobilized onto a silica support for separations of compounds following their affinity to AAG protein. By measuring the retention time, the binding to AAG can be determined relatively to the references.
Method. […] Mobile Phase A: 50 mM Ammonium acetate in deionized water; Mobile Phase B: Isopropanol; Column Oven: 8° C.; PDA(nm): 230; Flow Rate (mL/min): 0.2. Test Concentration (μmol/L): 100 (from 10 mmol/L DMSO solution diluted 100 folds by 50 mM Ammonium acetate in deionized water: Isopropanol (1:1)). Generic Gradient: Time (min): 0.01; 5; 13; 14; 20.

For `COCCN(CCOC)c1nc(N2CCC(OC)CC2)c2nc(N(CCOC)CCOC)nc(N3CCC(OC)CC3)c2n1` [Compound 2, N2,N2,N6,N6-tetrakis(2-methoxyethyl)-4,8-bis(4-methoxypiperidin-1-yl)pyrimido[5,4-d]pyrimidine-2,6-diamine], the IC50 ([1]; Condition A: X-VIVO15, read-out: TCell proliferation (Condition A) IC50) was 100 to 500 nM, the IC50 ([1]; Condition B: X-VIVO15, 2% HSA and 0.1% AAG, read-out: TCell proliferation (Condition B) IC50) was 100 to 500 nM and the IC50 (human ENT1 [2]) was < 100 nM. For the same compound, the “Human alpha-1-acid glycoprotein (AAG) (1 mg/mL) Unbound” value (human AAG protein) was 24.6% Unbound, the IC50 (human ENT1 [3]) was 100 to 500 nM and the “retention time (rt) on immobilized human AAG column” value [4] was 5.2 min.
